Data set [1] is described as follows: Metabolic stability assay in liver microsomes (MLM). It counts as in vitro ADME, mouse. The settings on record: mouse, liver microsomes, 2.0 µM, 0.5 mg protein/mL, NADPH; data >60 min is an extrapolated estimate; read-out: Metabolic stability MLM, t1/2. The method, then: (§1) Metabolic stability assay in liver microsomes. The stabilities of CDD-2110, CDD-2211, CDD-2212, CDD-2807, and CDD-3348 in liver microsomes with/without Uridine Diphosphate Glucuronic Acid (UDP-GA, a cofactor of UDP-glucuronosyltransferases) were performed and half-life was calculated as previously reported (36). Briefly, each CDD compound (2.0 μM) was incubated in the mouse or human liver microsomes (0.5 mg protein/mL) at 37°C in 1× PBS fortified with NADPH (1.0 mM) and with/without UDP-GA (2.5 mM). Alamethicin (25 µg/mL) as a pore forming agent was used for the glucuronidation (Table S2A). The samples were collected at specific time-points 0, 30, and 60 min in duplicate. The reactions were terminated by adding equivalent volume of ice-cold methanol (CH3OH) and vortexed. After centrifugation at 15000 g for 10 min, 3.0 μL of the supernatant was analyzed by Thermo TSQ Quantis MS coupled with a Thermo Vanquish UHPLC (San Jose, CA) equipped with a Luna C18 column (1 mm × 50 mm, 1.6 µm, Phenomenex, Torrance, CA). The column temperature was maintained at 40°C. CDD-2807 was monitored under the selected reaction monitoring (SRM) mode coupled with a positive electrospray ionization (ESI) source. The SRM ion pairs were 447→321 for CDD-2807.

Data set [2] can be described thus: Metabolic stability assay in liver microsomes (HLM). The settings on record: human, liver microsomes, 2.0 µM, 0.5 mg protein/mL, NADPH; data >60 min is an extrapolated estimate; read-out: Metabolic stability HLM, t1/2. It counts as in vitro ADME, human. On the procedure: as §1
In data set [3] the target is T1, CLK1 (Homo sapiens, UniProt P49759). As to the kind of experiment: NanoBRET target engagement intracellular kinase assay. Also on record: host or cells: HEK293 (HEK293T cultured). It counts as cell-based. The method, then:
(§2) NanoBRET Target Engagement intracellular kinase assay. HEK293T cells were cultured in […]
(§3) The cell line underwent authentication by short tandem repeat (STR) profiling at Cytogenetics and Cell Authentication Core (CCAC) at MD Anderson Cancer Center. NanoBRET Target Engagement intracellular kinase assay, K-10 assay (Cat. # N2641), K-9 assay (Cat. # N2631), transfection reagent FuGENE HD (Cat. # E2311), transfection carrier DNA (Cat. # E4881), NanoLuc-STK33 fusion vector (Cat. # NV2111), NanoLuc-RET fusion vector (Cat. # NV1951), NanoLuc-CLK1 fusion vector (Cat. # NV1131), NanoLuc-CLK2 fusion vector (Cat. # NV1141), and NanoLuc-CLK4 fusion vector (Cat. # NV1151) were purchased from Promega. The measurement of test compound engagement with cellular target protein was performed in a 384-well format according to manufacturer’s instructions. HEK293 cells were transiently transfected with NanoLuc (STK33, RET, CLK1, CLK2, and CLK4) fusion vectors. After 36 hours of transfection, cells were treated with a fixed concentration of tracer (recommended by Promega) followed by compounds (inhibitors) for 2 hours of incubation. To determine the test compound […]
(§4) 0.4 nM at a fixed tracer concentration. Staurosporine was measured in parallel as a positive control.
(§5) Freshly prepared NanoBRET Nano-Glo substrate plus extracellular NanoLuc inhibitor was then added to initiate the subsequent bioluminescence resonance energy transfer (BRET) measurements using a CLARIOstar Plus BMG LABTECH plate reader. Data analysis was done by measuring the ratio of acceptor emission to donor emission (BRET ratio) and normalized by subtracting no-tracer-control-background. IC50 values were obtained by nonlinear regression using a four-parameter equation in GraphPad Prism 7 (San Diego, CA).

The target in data set [4] is T2, CLK2 (Homo sapiens, UniProt P49760). The data set is described as above. It counts as cell-based. Details: host or cells: HEK293 (HEK293T cultured). On the procedure: as §2, §3, §4, §5
Data set [5] has as its target T3, CLK4 (Homo sapiens, UniProt Q9HAZ1). The data set is described as above. It counts as cell-based. Also on record: host or cells: HEK293 (HEK293T cultured). On the procedure:
as §2, §3, §4, §5

In data set [6] the target is T4, RET (Homo sapiens, UniProt P07949). Described as above. It counts as cell-based. Also on record: host or cells: HEK293 (HEK293T cultured). On the procedure:
as §2, §3, §4, §5

The target of data set [7] is T5, STK33 (Homo sapiens, UniProt Q9BYT3). Described as above. Details: host or cells: HEK293 (HEK293T cultured). It counts as cell-based. The method, then: as §2, §3, §4, §5
Data set [8] addresses T5, STK33. As to the kind of experiment: LanthaScreen binding assay (ThermoFisher SelectScreen). Also on record: purchased SelectScreen Services (ThermoFisher). An excerpt: (§6) In vitro biochemical assays. Several small molecule assays were outsourced to SelectScreen Services (ThermoFisher) for STK33 and for off-target kinases (data sets are available on demand).
(§7) These assays are LanthaScreen (binding assay) and Z’-LYTE (activity assay). Dose-responses were done with at least 5 different concentrations in duplicates, and parameters were optimized by calculations described below and provided with standard errors.
(§8) Calculation of Kd values for kinase inhibitors that bind to the ATP pocket of a kinase from LanthaScreen binding data. DynaFit (71) was used to fit complex equilibria where a tracer is displaced by a dilution series of a kinase inhibitor. This method relies on the concentration of inhibitor, as well as the concentration of kinase and tracer, and Kd of the tracer. The latter three parameters are tabulated by ThermoFisher for each kinase in the LanthaScreen assay panel. […]
Since Kd and Ki values are defined the same way, in other words, Kd = [E] [I] / [EI] = Ki, Kd and Ki values can be compared. […]
A general note: In TR-FRET formats the signal depends on donor and acceptor labels being close together.

Data set [9] concerns the target T3, CLK4. The data set is described as above. Also on record: purchased SelectScreen Services (ThermoFisher).
From the text: as §6, §7, §8

The target of data set [10] is T1, CLK1. As to the kind of experiment: Z'-LYTE activity assay (ThermoFisher SelectScreen). It counts as biochemical. Also on record: purchased SelectScreen Services (ThermoFisher). The following applies: [ATP] = Kmapp.
From the text: as §6
(§9) These assays are LanthaScreen (binding assay) and Z’-LYTE (activity assay). Dose-responses were done with at least 5 different concentrations in duplicates, and parameters were optimized by calculations described below and provided with standard errors. […]
(§10) Calculation of Ki values for kinase inhibitors from Z’-LYTE inhibition data. The Morrison equation with [ATP] = Kmapp for competitive inhibition (GraphPad Prism 7, San Diego, CA) was used to get Ki values. Since Kd and Ki values are defined the same way, in other words, Kd = [E] [I] / [EI] = Ki, Kd and Ki values can be compared. […]

The target of data set [11] is T2, CLK2. As to the kind of experiment: Z'-LYTE activity assay (ThermoFisher SelectScreen). The settings on record: [ATP] = Kmapp. It counts as biochemical. Details: purchased SelectScreen Services (ThermoFisher).
From the text: as §6, §9, §10

The target in data set [12] is T4, RET. As to the kind of experiment: Z'-LYTE activity assay (ThermoFisher SelectScreen). The settings on record: [ATP] = Kmapp. Details: purchased SelectScreen Services (ThermoFisher). It counts as biochemical.
From the text: as §6, §9, §10

The target of data set [13] is T5, STK33. The experiment in a line: Kinase assay screening against STK33 at 500 nM. It counts as biochemical. Also on record: purchased SelectScreen Services (ThermoFisher).
Where [14] appears, read: HEK293 cells, 2 hours incubation.

T5 sequence (Q9BYT3 whole entry): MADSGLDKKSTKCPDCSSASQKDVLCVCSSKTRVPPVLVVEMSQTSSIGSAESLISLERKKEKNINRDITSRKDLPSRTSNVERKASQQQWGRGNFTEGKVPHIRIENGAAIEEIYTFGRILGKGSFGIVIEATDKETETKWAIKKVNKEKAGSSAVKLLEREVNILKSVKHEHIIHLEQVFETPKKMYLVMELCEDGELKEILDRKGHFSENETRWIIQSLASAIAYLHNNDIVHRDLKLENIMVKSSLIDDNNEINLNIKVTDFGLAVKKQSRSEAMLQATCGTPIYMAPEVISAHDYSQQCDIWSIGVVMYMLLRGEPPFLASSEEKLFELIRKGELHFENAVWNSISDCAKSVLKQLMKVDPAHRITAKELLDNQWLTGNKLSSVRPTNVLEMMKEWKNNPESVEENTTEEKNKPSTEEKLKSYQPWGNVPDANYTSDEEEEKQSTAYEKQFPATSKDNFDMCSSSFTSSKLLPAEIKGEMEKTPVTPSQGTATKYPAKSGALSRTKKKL
T2 sequence (P49760 whole entry): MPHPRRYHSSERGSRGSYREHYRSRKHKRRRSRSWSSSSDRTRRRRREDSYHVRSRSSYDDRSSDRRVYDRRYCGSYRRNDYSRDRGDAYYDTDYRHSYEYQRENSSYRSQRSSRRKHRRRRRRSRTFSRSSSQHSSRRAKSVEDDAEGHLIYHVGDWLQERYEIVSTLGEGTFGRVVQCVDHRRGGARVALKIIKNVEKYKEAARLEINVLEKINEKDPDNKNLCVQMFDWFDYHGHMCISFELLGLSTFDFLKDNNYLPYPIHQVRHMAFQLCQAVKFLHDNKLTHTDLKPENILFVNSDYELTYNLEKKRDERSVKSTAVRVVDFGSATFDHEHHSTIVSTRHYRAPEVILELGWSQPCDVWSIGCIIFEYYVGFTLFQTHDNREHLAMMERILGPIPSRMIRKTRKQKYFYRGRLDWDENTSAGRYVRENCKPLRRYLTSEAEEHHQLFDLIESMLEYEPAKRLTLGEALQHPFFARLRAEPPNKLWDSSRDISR
T3 sequence (Q9HAZ1 whole entry): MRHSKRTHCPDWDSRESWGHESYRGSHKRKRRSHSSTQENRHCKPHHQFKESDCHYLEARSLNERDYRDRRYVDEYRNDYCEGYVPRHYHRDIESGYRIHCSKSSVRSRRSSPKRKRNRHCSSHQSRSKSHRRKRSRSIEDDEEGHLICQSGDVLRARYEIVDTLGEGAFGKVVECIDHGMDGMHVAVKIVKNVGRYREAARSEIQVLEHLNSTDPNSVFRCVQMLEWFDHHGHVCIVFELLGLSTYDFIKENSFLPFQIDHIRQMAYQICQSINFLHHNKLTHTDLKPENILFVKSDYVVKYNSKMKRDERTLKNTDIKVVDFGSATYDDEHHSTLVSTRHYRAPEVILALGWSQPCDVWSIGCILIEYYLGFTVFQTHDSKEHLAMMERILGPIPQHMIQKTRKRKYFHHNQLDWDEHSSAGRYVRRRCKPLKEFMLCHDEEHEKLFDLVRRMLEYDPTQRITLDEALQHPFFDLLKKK
T1 sequence (P49759 whole entry): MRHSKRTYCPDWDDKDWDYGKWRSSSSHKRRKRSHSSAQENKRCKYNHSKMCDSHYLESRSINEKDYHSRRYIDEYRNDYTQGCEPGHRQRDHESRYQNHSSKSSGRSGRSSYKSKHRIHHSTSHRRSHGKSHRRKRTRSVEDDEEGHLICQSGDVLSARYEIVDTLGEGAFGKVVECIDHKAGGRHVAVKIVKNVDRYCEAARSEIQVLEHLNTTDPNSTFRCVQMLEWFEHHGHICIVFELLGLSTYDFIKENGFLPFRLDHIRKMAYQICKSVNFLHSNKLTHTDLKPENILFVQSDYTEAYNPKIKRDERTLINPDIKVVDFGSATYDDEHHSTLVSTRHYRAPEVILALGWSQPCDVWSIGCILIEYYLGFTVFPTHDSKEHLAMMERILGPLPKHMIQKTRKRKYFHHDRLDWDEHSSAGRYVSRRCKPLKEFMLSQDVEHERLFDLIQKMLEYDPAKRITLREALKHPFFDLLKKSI
T4 sequence (P07949 29-1114): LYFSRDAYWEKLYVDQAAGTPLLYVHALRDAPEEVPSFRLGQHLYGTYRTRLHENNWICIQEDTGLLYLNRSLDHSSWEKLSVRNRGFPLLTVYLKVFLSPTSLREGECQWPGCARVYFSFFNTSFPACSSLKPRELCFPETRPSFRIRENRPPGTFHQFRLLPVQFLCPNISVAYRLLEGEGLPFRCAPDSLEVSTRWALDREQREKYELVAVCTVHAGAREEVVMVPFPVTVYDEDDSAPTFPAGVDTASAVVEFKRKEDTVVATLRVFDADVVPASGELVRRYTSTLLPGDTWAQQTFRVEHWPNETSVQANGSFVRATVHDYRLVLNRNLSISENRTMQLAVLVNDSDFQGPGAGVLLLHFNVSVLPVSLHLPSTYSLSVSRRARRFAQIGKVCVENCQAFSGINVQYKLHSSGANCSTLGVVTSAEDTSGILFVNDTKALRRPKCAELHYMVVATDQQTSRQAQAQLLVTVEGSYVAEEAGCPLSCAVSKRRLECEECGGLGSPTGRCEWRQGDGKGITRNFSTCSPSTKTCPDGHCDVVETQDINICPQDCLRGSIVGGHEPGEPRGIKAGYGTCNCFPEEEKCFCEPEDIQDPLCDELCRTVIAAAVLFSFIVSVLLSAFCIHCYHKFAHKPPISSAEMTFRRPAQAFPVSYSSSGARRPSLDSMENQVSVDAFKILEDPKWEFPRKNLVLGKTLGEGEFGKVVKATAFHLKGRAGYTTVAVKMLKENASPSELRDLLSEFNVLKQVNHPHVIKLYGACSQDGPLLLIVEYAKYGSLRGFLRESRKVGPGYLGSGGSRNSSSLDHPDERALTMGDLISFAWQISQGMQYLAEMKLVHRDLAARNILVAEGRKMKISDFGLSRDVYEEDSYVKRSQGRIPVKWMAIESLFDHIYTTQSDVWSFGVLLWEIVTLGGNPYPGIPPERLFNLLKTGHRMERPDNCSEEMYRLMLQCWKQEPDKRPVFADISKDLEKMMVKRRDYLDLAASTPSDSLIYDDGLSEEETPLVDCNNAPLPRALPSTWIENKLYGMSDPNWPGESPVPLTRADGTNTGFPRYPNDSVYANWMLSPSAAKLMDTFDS

For `CNC(=O)CCC1CCN(C(=O)C2CCN(C3CCN(C(=O)c4ccc5[nH]nc(C#Cc6ccccc6-c6ccccc6)c5c4)C3)CC2)CC1` (stereo not shown) [CDD-3348], the values for the half-life at 2 µM in data set [1] and in [2] were 14 min and 13 min, respectively. Also, the IC50 was found to be 6.73 µM on CLK1 [3] (setting [14]); 2530 nM at CLK2 [4] (setting [14]); 3.85 µM on CLK4 [5] (setting [14]); 6.41 µM at RET [6] (setting [14]); 169 nM on STK33 [7] (setting [14]). Also, the “Fold NanoBRET IC50 CLK1 over STK33 (in parentheses)” value at CLK1 [3] (selectivity vs STK33) was determined as 40 X. For the same compound, the “Fold NanoBRET IC50 CLK2 over STK33 (in parentheses)” value on CLK2 [4] (selectivity vs STK33) came out at 15 X. Moreover, at CLK4 [5] (selectivity vs STK33), the “Fold NanoBRET IC50 CLK4 over STK33 (in parentheses)” value is on record as 23 X. The “Fold NanoBRET IC50 RET over STK33 (in parentheses)” value at RET [6] (selectivity vs STK33) stood at 38 X. In addition, the “selectivity toward STK33 compared to CLK1, CLK2, CLK4, and RET” value at STK33 [7] is reported as more than 10 fold. Further, the Kd on STK33 [8] was 0.06 nM; on CLK4 [9], 26.2 ± 1.5 nM. In addition, the Ki at CLK1 [10] came to 477 ± 34 nM; on CLK2 [11], 58.3 ± 3.3 nM; at RET [12] it was 5.6 ± 0.5 nM.
For `CN(C)C1CCN(C(=O)c2ccc3c(c2)c(C#Cc2ccccc2-c2ccccc2)nn3C)C1` (stereo not shown) [Compound S8], at STK33 [13], the “kinase assay screening against STK33” value is “not passing”.
In the case of `CN(C)C1CCN(C(=O)c2ccc3[nH]nc(Cc4ccccc4-c4ccccc4)c3c2)C1` (stereo not shown) [Compound S11], at STK33 [13], the “kinase assay screening against STK33” value is given as “not passing”.

The term IC50 denotes the concentration needed to halve the response being measured. For orientation: Kd means the constant that tells how readily two partners part at equilibrium. Broadly, the Ki is a dissociation constant, usually derived from enzyme kinetics or from competition with a known ligand.

The record behind these values is PMC11842024, “Reversible male contraception by targeted inhibition of serine/threonine kinase 33” (Science (New York, N.Y.), 2024).
